Numbering of substitutions follows the chain as printed.
What was measured:
Norwalk virus replicon = test: Susceptibility of HGT-NV replicon cells passaged in parallel in DMSO (qRT-PCR); assay type: cell-based, Human norovirus (HuNoV) GI
Protocol: Given the potent effects of rupintrivir on HGT-NV cells, we sought to determine whether rupintrivir-resistant replicons could be generated. To this end, HGT-NV cells were treated with 5 μM rupintrivir for 12 days in the absence of G418 selection, followed by subsequent passages in the presence of G418 with increasing concentrations of rupintrivir for up to 45 days (Fig. 1D). This approach yielded three lineages of replicon cells which were resistant to 10, 15, and 20 μM rupintrivir. To identify the mutations conferring the resistance to rupintrivir, we isolated cell clones by limiting dilution using replicon cells surviving after 45 days of culture and then evaluated the rupintrivir sensitivity of the replicon cells. […] All clones treated with 10 μM rupintrivir had the I109V single amino acid substitution, while the A105V/I109V double amino acid substitution was observed only in clones treated with 15 and 20 μM rupintrivir. […]
The inhibitory effect of rupintrivir on HuNoV replication was assessed by quantification of the levels of GI NuNoV RNA and β-actin RNA as the reference gene. […] The real-time quantitative reverse transcription-PCR (qRT-PCR) assay was performed by using a One-Step Plus qRT-PCR kit according to the protocol of the manufacturer (Primer Design). […] Relative quantification was performed using the 2^−ΔΔCT threshold cycle (CT) method ([38]). […]

GI WT protease = biological target: T1, GI WT protease (Norovirus, UniProt Q83883); test: Cell-based FRET assay, GI WT protease; parameters: species or system norovirus GI.1 (M87661); conditions: HEK293T cells, GI NS1/2-NS3 FRET substrate; read-out: 50% inhibitory concentration (IC50)
T1 construct: plasmids expressing norovirus protease from GI.1 (M87661); expressed in transfected cells; host or cells: HEK293T
T1 sequence (Q83883 1101-1281): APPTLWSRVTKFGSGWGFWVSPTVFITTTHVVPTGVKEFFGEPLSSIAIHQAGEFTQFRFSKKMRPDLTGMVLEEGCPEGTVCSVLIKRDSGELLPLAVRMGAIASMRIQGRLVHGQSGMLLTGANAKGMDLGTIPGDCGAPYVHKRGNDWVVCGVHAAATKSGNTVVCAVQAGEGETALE
Excerpt: (§1) The generation of plasmids expressing norovirus protease from GI.1 (M87661), GII.4 (DQ658413), or GV (DQ285629) norovirus and FRET assay constructs has been described previously ([18]). The plasmids carrying GI, GII, and GV proteases with the A105V, I109V, or A105V/I109V mutation were generated from the wild-type (WT) protease constructs described above by the QuikChange site-directed mutagenesis method. Mutant MNV genomes for reverse genetics were generated by two-step PCR mutagenesis of the WT MNV genome (pT7 MNV 3RZ) construct as described previously ([27]). The primers used for generation of the plasmids are listed in Tables S1 and S2 in the supplemental material.
(§2) The YFP/CFP ratio was used to determine FRET efficiency, as described previously ([18], [40]). Briefly, HEK293T cells were plated into black 96-well cell culture microplates (Greiner Bio-One) at a density of 5 × 10^4 cells/well in 100 μl of DMEM containing 10% fetal bovine serum with or without various concentrations of rupintrivir and then incubated for 4 h in a CO2 incubator at 37°C. […] The plates were then analyzed on a SpectraMax i3 instrument in fluorescence mode, with excitation set at 434 nm and the reading emissions set at 477 nm (CFP) and 527 nm (YFP). The background fluorescence from wells transfected with pcDNA3.1 was determined and subtracted. […]

GII protease = test: Cell-based FRET assay, GII WT protease; parameters: species or system norovirus GII.4 (DQ658413); conditions: compared with GI and GV WT proteases, HEK293T cells
Excerpt: as §1, §2

GV WT protease = biological target: T2, GV WT protease (Norovirus, UniProt Q80J95); test: Cell-based FRET assay, GV WT protease; parameters: species or system murine norovirus (MNV) GV (DQ285629); conditions: HEK293T cells, GV NS1/2-NS3 FRET substrate
T2 construct: plasmids expressing norovirus protease from GI.1 (M87661), GII.4 (DQ658413), or GV (DQ285629) norovirus; expressed in transfected cells; host or cells: HEK293T
T2 sequence (Q80J95 995-1177 limits assumed): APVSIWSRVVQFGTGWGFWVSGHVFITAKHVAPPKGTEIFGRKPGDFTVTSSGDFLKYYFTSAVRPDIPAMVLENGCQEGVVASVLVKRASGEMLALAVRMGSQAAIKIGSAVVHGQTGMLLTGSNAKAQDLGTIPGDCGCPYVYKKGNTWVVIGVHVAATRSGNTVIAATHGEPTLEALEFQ
Excerpt: as §1, §2

GV A105V protease = biological target: T3, GV A105V protease (Norovirus, UniProt Q80J95, A1099V); test: Cell-based FRET assay, GV A105V protease; parameters: species or system murine norovirus (MNV) GV (DQ285629); conditions: GV A105V vs GV WT
T3 construct: plasmids expressing norovirus protease from GI.1 (M87661), GII.4 (DQ658413), or GV (DQ285629) norovirus; expressed in transfected cells; host or cells: HEK293T
T3 sequence (Q80J95 995-1177 A1099V): T2 sequence (Q80J95 995-1177 limits assumed) with A105V
Excerpt: as §1, §2

CCOC(=O)/C=C/[C@H](C[C@@H]1CCNC1=O)NC(=O)[C@@H](CC(=O)[C@@H](NC(=O)c1cc(C)on1)C(C)C)Cc1ccc(F)cc1 [rupintrivir, Rupintrivir]
Fold change in sensitivity (Norwalk virus replicon; DMSO-passaged cells, relative to DMSO): 1.0
EC50 (Norwalk virus replicon; Norwalk virus, read-out: Mean EC50 ± SD): 1300 ± 200 nM
IC50 (GI WT protease): 1300 ± 400 nM
susceptibility of the protease to rupintrivir (GII protease): substantially lower
IC50 (GV WT protease): 1000 ± 100 nM
impact of substitution on susceptibility (GV A105V protease): no appreciable impact

— publication PMC5923142, “Selection and Characterization of Rupintrivir-Resistant Norwalk Virus Replicon Cells In Vitro” (Antimicrobial Agents and Chemotherapy, 2018)
